17 compounds from patent publication US9273040B2 (Merck Sharp & Dohme Corp., priority 2011, dated 2016) can be followed below.

Holding throughout (assay type): cell-based
Test [1] has as its target T1, human Nav1.7 channels stably expressed in HEK 293 cells (Homo sapiens, UniProt Q15858).
T1 construct: expressed in transfected cells
In words: PatchXpress 7000 automated patch-clamp, sodium current. Particulars: 22° C., read-out: potency for the Nav 1.7 sodium ion channel (as measured by PatchXpress). A digest of the protocol: (§1)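 IC50 values came from Hill-equation fits of rundown-corrected inhibition. PatchXpress recordings at 22° C held cells 20 mV negative to V0.5 inact and applied 10 Hz trains of 30 ms steps to −20 mV (Nav1.7) or an 8000 ms prepulse 7 mV positive to V0.5 inact. […]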

The target of test [2] is T2, human Nav1.5 channels stably expressed in HEK 293 cells (Homo sapiens, UniProt Q14524).
T2 construct: expressed in transfected cells
The description is as above. The note with it: selectivity over Nav1.5. In short, it runs like this:
as §1

Test [3] addresses T1, human Nav1.7 channels stably expressed in HEK 293 cells. In words: IonWorks Quattro automated patch-clamp, sodium current, inactivated state block. Particulars: read-out: potency for the Nav 1.7 sodium ion channel (as measured by IonWorks). The protocol: (§2) Compounds were tested on human Nav1.7 and Nav1.5 channels stably expressed in HEK 293 cells. […] Cells were sealed on a planar substrate using the Population Patch Plate (PPC) technology. Electrical access was obtained using both nystatin and amphotericin. A double-pulse protocol was used for the determination of IC50 values for inactivated state block. Nav1.7 and Nav1.5 expressing cells were voltage clamped at −100 mV and −110 mV, respectively. A depolarizing prepulse to −10 mV (Nav1.7) or −30 mV (Nav1.5) for 1000 ms followed by a 10 ms repolarization to −100 mV (Nav1.7) or −110 mV (Nav1.5) was given to generate fractional channel inactivation of ˜50%, followed by a 10 ms test pulse to −10 mV (Nav1.7) or −30 mV (Nav1.5) to measure peak current in control conditions and after compound addition. The following recording solutions were used (mM). External: 150 NaCl, 2 CaCl2, 5 KCl, 1 Mg Cl2, 10 HEPES, 12 Dextrose; internal: 120 CsF, 30 CsCl, 10 EGTA, 5 HEPES, 5 NaF, 2 MgCl2.
(§3) For all electrophysiology experiments, offline analysis was used to correct for current rundown and to determine percent inhibition as a function of drug concentration. IC50 values were determined by fitting to the Hill equation.
(In general: In patch-clamp work, channel activity is measured electrically.)

Test [4] deals with T2, human Nav1.5 channels stably expressed in HEK 293 cells. The test is described as above. Particulars: selectivity over Nav1.5. The protocol: as §2, §3

T1 sequence (Q15858 whole entry): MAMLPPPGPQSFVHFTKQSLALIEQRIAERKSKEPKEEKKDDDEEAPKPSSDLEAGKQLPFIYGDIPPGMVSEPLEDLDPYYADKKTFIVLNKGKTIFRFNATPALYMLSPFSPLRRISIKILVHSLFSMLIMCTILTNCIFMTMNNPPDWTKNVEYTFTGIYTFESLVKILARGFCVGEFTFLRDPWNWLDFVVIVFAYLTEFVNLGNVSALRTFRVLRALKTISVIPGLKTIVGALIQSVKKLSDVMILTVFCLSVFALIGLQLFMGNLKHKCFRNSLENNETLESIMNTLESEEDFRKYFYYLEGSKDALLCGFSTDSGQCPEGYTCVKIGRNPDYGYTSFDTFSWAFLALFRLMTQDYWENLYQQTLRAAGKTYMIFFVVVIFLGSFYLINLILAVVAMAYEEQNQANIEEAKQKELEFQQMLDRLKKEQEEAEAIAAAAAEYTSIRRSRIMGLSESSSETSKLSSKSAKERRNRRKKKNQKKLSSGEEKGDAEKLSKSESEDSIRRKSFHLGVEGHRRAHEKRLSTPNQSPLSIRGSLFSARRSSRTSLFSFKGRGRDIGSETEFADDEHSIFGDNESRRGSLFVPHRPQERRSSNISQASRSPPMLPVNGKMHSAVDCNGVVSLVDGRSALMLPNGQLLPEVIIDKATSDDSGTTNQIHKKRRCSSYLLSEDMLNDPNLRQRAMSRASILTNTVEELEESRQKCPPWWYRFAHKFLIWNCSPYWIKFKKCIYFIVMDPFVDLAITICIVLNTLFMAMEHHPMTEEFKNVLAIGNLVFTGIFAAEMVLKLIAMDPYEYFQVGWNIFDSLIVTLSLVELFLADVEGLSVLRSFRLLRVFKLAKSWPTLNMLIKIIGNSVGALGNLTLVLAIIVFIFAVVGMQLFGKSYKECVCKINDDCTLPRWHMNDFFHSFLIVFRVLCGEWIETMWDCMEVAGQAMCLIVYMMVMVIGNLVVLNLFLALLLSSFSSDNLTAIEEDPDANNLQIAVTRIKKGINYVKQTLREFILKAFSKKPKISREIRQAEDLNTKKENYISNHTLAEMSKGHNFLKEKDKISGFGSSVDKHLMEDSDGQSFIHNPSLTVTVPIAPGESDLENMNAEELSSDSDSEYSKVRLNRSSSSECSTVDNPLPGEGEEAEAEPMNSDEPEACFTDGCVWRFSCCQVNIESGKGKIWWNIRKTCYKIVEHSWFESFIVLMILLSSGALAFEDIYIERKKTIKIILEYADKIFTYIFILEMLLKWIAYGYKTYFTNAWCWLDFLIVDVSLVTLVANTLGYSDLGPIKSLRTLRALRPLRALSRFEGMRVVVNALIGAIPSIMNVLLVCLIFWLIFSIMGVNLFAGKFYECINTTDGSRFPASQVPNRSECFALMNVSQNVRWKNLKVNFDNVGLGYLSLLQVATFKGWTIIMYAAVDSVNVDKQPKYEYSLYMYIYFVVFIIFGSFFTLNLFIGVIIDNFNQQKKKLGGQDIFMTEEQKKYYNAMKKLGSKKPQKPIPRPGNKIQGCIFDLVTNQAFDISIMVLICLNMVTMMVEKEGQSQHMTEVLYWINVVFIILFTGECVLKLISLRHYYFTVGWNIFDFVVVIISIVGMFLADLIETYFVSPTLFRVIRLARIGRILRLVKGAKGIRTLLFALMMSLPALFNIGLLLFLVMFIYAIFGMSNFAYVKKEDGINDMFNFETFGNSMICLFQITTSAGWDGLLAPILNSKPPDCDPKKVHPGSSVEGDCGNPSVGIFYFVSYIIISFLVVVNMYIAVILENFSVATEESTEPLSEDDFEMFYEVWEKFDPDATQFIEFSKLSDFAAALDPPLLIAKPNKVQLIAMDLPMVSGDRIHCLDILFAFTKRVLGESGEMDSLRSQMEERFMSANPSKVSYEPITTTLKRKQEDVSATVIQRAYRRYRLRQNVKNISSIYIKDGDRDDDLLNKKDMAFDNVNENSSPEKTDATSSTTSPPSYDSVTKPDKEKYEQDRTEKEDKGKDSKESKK
T2 sequence (Q14524 whole entry): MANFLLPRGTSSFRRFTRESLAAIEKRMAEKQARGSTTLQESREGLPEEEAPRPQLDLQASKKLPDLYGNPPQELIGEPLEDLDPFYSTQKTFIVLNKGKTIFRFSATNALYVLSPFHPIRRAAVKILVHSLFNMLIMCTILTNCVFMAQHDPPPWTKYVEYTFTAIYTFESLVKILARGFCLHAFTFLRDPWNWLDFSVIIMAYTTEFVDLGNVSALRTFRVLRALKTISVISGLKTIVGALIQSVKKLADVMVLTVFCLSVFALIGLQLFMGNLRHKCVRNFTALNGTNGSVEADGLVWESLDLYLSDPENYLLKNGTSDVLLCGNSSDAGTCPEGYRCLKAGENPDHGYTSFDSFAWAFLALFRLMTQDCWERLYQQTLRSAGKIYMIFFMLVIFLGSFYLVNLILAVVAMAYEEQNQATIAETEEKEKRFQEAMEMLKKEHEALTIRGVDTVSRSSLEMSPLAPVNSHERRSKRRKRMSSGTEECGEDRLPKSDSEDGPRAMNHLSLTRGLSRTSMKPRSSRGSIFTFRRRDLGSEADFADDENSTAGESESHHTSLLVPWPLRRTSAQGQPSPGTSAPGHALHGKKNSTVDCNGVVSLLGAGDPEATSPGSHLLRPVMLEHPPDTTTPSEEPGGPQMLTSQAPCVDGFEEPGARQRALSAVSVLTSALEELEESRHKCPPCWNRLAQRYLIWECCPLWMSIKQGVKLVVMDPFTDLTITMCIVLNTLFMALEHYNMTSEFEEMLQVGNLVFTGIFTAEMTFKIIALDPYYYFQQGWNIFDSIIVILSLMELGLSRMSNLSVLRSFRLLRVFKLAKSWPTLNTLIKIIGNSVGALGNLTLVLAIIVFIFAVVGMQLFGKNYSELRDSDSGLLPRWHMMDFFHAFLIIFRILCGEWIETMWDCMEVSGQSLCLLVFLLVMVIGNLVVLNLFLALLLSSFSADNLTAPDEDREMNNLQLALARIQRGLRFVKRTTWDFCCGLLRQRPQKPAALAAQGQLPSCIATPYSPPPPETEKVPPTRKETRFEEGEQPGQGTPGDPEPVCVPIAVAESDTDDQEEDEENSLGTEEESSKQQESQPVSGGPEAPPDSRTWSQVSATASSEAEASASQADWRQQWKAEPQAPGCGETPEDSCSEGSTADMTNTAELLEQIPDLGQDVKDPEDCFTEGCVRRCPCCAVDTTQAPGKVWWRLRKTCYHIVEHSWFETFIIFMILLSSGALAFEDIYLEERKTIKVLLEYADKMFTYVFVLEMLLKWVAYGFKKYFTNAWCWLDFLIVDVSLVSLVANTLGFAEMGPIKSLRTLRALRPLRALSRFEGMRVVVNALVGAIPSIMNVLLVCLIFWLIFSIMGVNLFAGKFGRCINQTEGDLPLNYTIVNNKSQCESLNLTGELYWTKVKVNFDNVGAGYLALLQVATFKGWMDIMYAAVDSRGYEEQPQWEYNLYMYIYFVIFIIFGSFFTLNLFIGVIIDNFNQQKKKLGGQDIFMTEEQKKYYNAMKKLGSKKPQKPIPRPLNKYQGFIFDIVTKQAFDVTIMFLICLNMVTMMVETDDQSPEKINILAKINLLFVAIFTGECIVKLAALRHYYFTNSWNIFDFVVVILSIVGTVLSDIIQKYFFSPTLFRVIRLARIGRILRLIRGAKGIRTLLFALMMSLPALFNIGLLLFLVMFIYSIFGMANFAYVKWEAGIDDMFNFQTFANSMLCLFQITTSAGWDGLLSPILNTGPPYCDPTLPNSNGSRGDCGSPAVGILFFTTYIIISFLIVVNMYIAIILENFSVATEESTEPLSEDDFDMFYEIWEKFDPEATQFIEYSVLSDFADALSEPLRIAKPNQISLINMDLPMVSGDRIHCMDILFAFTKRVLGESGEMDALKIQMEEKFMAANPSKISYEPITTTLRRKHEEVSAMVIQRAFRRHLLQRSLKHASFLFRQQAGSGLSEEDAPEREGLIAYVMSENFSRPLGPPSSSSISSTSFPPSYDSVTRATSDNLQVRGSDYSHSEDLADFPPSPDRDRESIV

As for `NC/C=C/c1ccccc1Cn1c(=O)oc2cc(S(=O)(=O)Nc3ncns3)ccc21` [Compound 3-3, 3-{2-[(1E)-3-Aminoprop-1-en-1-yl]benzyl}-2-oxo-N-(1,2,4-thiadiazol-5-yl)-2,3-dihydro-1,3-benzoxazole-6-sulfonamide], the IC50 in test [1] came to 336 nM; in test [3], 216 nM. Also, the “ratio of Nav 1.5:Nav 1.7 potency, determined by PatchXpress measurement” value (“ratio … by PatchXpress measurement” below) in test [2] is given as above 89. In addition, the “ratio of Nav 1.5:Nav 1.7 potency, determined by IonWorks measurement” value (“ratio … by IonWorks measurement” below) in test [4] stood at 65.
In the same order, the values of `C[C@@H](c1cccc2c1CNCC2)n1c(=O)oc2cc(S(=O)(=O)Nc3ncns3)ccc21` [Compound 4-15, 2-oxo-3-[(1S)-1-(1,2,3,4-tetrahydroisoquinolin-8-yl)ethyl]-N-1,2,4-thiadiazol-5-yl-2,3-dihydro-1,3-benzoxazole-6-sulfonamide] are 343 nM, 73 nM, above 87 and above 451.
On the same counts, the results for `CCN1CCc2cccc(Cn3c(=O)oc4cc(S(=O)(=O)Nc5ncns5)ccc43)c2C1` [Compound 6-2, 3-[(2-ethyl-1,2,3,4-tetrahydroisoquinolin-8-yl)methyl]-2-oxo-N-1,2,4-thiadiazol-5-yl-2,3-dihydro-1,3-benzoxazole-6-sulfonamide] are 234 nM, 336 nM, 71 and above 98.
Turning to `O=c1oc2cc(S(=O)(=O)Nc3ncns3)ccc2n1Cc1ccccc1-c1cccc2c1CNCC2` [Compound 3-4, 2-oxo-3-[2-(1,2,3,4-tetrahydroisoquinolin-8-yl)benzyl]-N-1,2,4-thiadiazol-5-yl-2,3-dihydro-1,3-benzoxazole-6-sulfonamide], the values for the IC50 in test [1] and in test [3] were 110 nM and 158 nM, respectively. Besides, the “ratio … by PatchXpress measurement” value in test [2] is on record as above 272. Also, the “ratio … by IonWorks measurement” value in test [4] is recorded as above 209.
On the same counts, the results for `NCc1ccccc1Cn1c(=O)oc2cc(S(=O)(=O)Nc3ncns3)ccc21` [Compound 1-14, 3-[2-(aminomethyl)benzyl]-2-oxo-N-1,2,4-thiadiazol-5-yl-2,3-dihydro-1,3-benzoxazole-6-sulfonamide] are 365 nM, 265 nM, 45 and above 125.
On the same counts, the results for `O=c1oc2cc(S(=O)(=O)Nc3ncns3)ccc2n1Cc1cccc(Cl)c1` [Compound 1-11, 3-(3-chlorobenzyl)-2-oxo-N-1,2,4-thiadiazol-5-yl-2,3-dihydro-1,3-benzoxazole-6-sulfonamide] are 360 nM, 360 nM, 59 and 59.
In the same order, the values of `O=C(C1CC1)N1CCc2cccc(Cn3c(=O)oc4cc(S(=O)(=O)Nc5ncns5)ccc43)c2C1` [Compound 10-1, 3-{[2-(Cyclopropylcarbonyl)-1,2,3,4-tetrahydroisoquinolin-8-yl]methyl}-2-oxo-N-1,2,4-thiadiazol-5-yl-2,3-dihydro-1,3-benzoxazole-6-sulfonamide] are 598 nM, 666 nM, 14 and above 50.
With `CS(=O)(=O)N1CCc2cccc(Cn3c(=O)oc4cc(S(=O)(=O)Nc5ncns5)ccc43)c2C1` [Compound 8-4, 3-{[2-(Methylsulfonyl)-1,2,3,4-tetrahydroisoquinolin-8-yl]methyl}-2-oxo-N-(1,2,4-thiadiazol-5-yl)-2,3-dihydro-1,3-benzoxazole-6-sulfonamide], the IC50 was determined as 254 nM in test [1] and 526 nM in test [3]. In addition, the “ratio … by PatchXpress measurement” value in test [2] is recorded as above 1180. Moreover, the “ratio … by IonWorks measurement” value in test [4] was 20.
Regarding `O=c1oc2cc(S(=O)(=O)Nc3ncns3)ccc2n1Cc1ccccc1` [Compound 1-10, 3-benzyl-2-oxo-N-1,2,4-thiadiazol-5-yl-2,3-dihydro-1,3-benzoxazole-6-sulfonamide], the figures for the IC50 in test [1] and in test [3] were 486 nM and 803 nM, respectively. Besides, in test [2], the “ratio … by PatchXpress measurement” value is listed as above 62. Besides, the “ratio … by IonWorks measurement” value in test [4] is recorded as above 41.
On the same counts, the results for `CC(=O)N1CCc2cccc(Cn3c(=O)oc4cc(S(=O)(=O)Nc5ncns5)ccc43)c2C1` [Compound 9-1, 3-[(2-Acetyl-1,2,3,4-tetrahydroisoquinolin-8-yl)methyl]-2-oxo-N-(1,2,4-thiadiazol-5-yl)-2,3-dihydro-1,3-benzoxazole-6-sulfonamide] are 530 nM, 638 nM, above 57 and 35.
With `CN1CCc2cccc(Cn3c(=O)oc4cc(S(=O)(=O)Nc5ncns5)ccc43)c2C1` [Compound 6-1, 3-[(2-Methyl-1,2,3,4-tetrahydroisoquinolin-8-yl)methyl]-2-oxo-N-(1,2,4-thiadiazol-5-yl)-2,3-dihydro-1,3-benzoxazole-6-sulfonamide], the IC50 in test [1] is 869 nM; in test [3], 366 nM. Further, the “ratio … by PatchXpress measurement” value in test [2] is given as above 35. The “ratio … by IonWorks measurement” value in test [4] amounted to 88.
In the same order, the values of `NC/C=C/c1ccccc1Cn1c(=O)oc2cc(S(=O)(=O)Nc3ncns3)c(F)cc21` [Compound 12-3, 3-{2-[(1E)-3-Aminoprop-1-en-1-yl]benzyl}-5-fluoro-2-oxo-N-(1,2,4-thiadiazol-5-yl)-2,3-dihydro-1,3-benzoxazole-6-sulfonamide] are 27 nM, 5 nM, 1096 and 6084.
In the same order, the values of `C[C@H](c1ccccc1)n1c(=O)oc2cc(S(=O)(=O)Nc3ncns3)ccc21` [Compound 4-7, 2-oxo-3-[(1R)-1-phenylethyl]-N-1,2,4-thiadiazol-5-yl-2,3-dihydro-1,3-benzoxazole-6-sulfonamide] are 74 nM, 670 nM, 287 and 28.
In the case of `O=c1oc2cc(S(=O)(=O)Nc3ncns3)c(F)cc2n1Cc1cccc2c1CNCC2` [Compound 11-5, 5-Fluoro-2-oxo-3-(1,2,3,4-tetrahydroisoquinolin-8-ylmethyl)-N-(1,2,4-thiadiazol-5-yl)-2,3-dihydro-1,3-benzoxazole-6-sulfonamide], the IC50 in test [1] was found to be 69 nM; in test [3], 101 nM. Also, the “ratio … by PatchXpress measurement” value in test [2] was 139. For the same compound, the “ratio … by IonWorks measurement” value in test [4] came to 182.
On to `CC(CCc1ccccc1)n1c(=O)oc2cc(S(=O)(=O)Nc3ncns3)ccc21` (centres unmarked) [Compound 4-11, 3-(1-methyl-3-phenylpropyl)-2-oxo-N-1,2,4-thiadiazol-5-yl-2,3-dihydro-1,3-benzoxazole-6-sulfonamide], for which the IC50 in test [1] amounted to 1770 nM; in test [3], 1730 nM. The “ratio … by PatchXpress measurement” value in test [2] is above 17. In addition, the “ratio … by IonWorks measurement” value in test [4] came to 9.
In the same order, the values of `C[C@@H](c1cccc2c1CNCC2)n1c(=O)oc2cc(S(=O)(=O)Nc3ncns3)c(F)cc21` [Compound 11-6, 5-fluoro-2-oxo-3-[(1S)-1-(1,2,3,4-tetrahydroisoquinolin-8-yl)ethyl]-N-1,2,4-thiadiazol-5-yl-2,3-dihydro-1,3-benzoxazole-6-sulfonamide] are 322 nM, 576 nM, above 93 and 57.
In the same order, the values of `NC/C=C/c1cc(Cl)ccc1Cn1c(=O)oc2cc(S(=O)(=O)Nc3ncns3)ccc21` [Compound 3-11, 3-{2-[(1E)-3-aminoprop-1-en-1-yl]-4-chlorobenzyl}-2-oxo-N-1,2,4-thiadiazol-5-yl-2,3-dihydro-1,3-benzoxazole-6-sulfonamide] are 219 nM, 596 nM, 87 and above 56.
